Melting point data for one compound are collected here from US20060079680A1, “Pyrazoloazepine compounds as pharmaceutical agents” (Eli Lilly and Company Patent Division, priority 2002, published 2006).

Each structure is given as a SMILES string.

As to `c1ccc(-c2nn3c(c2-c2ccnc4cc(OCCN5CCOCC5)ccc24)CCCCC3)nc1` [Example 4, 3-[7-(2-Morpholin-4-yl-ethoxy)-quinolin-4-yl]-2-pyridin-2-yl-5,6,7,8-tetrahydro-4H-pyrazolo[1,5-a]azepine], the melting point lay in the range of 157 to 159 °C.
